Patent US5278158A, “Oxazinobenzazole compounds” (Yamanouchi Pharmaceutical Co., Ltd., priority 1991, dated 1994)

How the values were obtained:
[1] = tested on: 3,4-Diaminopyridine Induced Rhythmic Contractions; assay: Effects on 3,4-Diaminopyridine Induced Rhythmic Contractions (isolated coronary artery rings); set-up: species or system Mongrel dogs; details: Canis lupus familiaris, isolated dog coronary artery rings, 10 mM 3,4-diaminopyridine; for IC50: read-out: IC50 (inhibitory effect on the frequency of the rhythmic contractions); for IC100: read-out: IC100 (inhibitory effect on the frequency of the rhythmic contractions)
Protocol: (1) Effects on 3,4-Diaminopyridine Induced Rhythmic Contractions
The experiment was carried out according to the method of Uchida, Sugimoto, et al. (Myakkangaku, 24, 133-143, 1984). Mongrel dogs of either sex were anesthetized with intravenous administration of 30 mg/Kg pentobarbital and were sacrificed by bleeding and then, the heart was excised from each animal. In the Krebs-Henseleit solution, the left circumflex branch or the anterior descending branch was isolated and cut into rings about 2 mm in width. The ring segments were fixed to a stainless-steal hook, and suspended in 37° C. Krebs-Henseleit solution aerated with a mixed gas (95% O2 and 5% CO2) under a tension load of 1.0 g, and isometric contractions were recorded. After the specimen was stabilized for 30 minutes, and rhythmic contractions were induced by treatment with 10 mM 3,4-diamiopyridine. After the amplitude and frequency of rhythmic contractions became substantially steady, a test compound was cumulatively added to the nutritious solution, and the concentration-response curves for the amplitude and frequency of the contractions were constructed and efficacy was evaluated.
[…] (the concentrations required to inhibit the frequency of the rhythmic contractions) of the compounds of this invention are between 0.1 and 10 μM.

coronary artery = assay: Coronary Vasodilating Effect (anesthetized dogs, intracoronary); format: in vivo, Mongrel dogs; details: i.a.; action of 300 μg papaverine set as 100%
Protocol: (3) Coronary Vasodilating Effect
Mongrel dogs of either sex were anesthetized with intravenous administration of 30 mg/Kg pentobarbital.
After tracheal intubation, the experiments was conducted under artificial respiration. After thoracotomy, the left circumflex branch was perfused with the autologous blood derived from the carotid artery at a constant pressure through an extracorporeal circuit. Coronary blood flow was measured with an electromagnetic flow probe installed in the extra-corporeal circuit. The test compound was administered directly into the coronary artery through the extra-corporeal circuit and the coronary vasodilating effects were evaluated.
The dilating action was expressed as percentage with the action of 300 μg papaverine being set as 100%, and the dose required to produce a blood flow increase of 100% (ED100pap) was calculated.

blood pressure [2] = assay: Hypotensive Effect in spontaneously hypertensive rats (oral); format: in vivo, Spontaneously hypertensive rats (SHR) of Okamoto-Aoki strain; details: 300 μg/Kg p.o.; conscious SHR
Protocol: Spontaneously hypertensive rats (SHR) of Okamoto-Aoki strain were anesthetized with pentobarbital, 60 mg/kg i.p. Then, a cannula for blood pressure measurement was indwelt in the left common carotid artery and the other end of the cannula was led out extracorporeally from the posterior neck. After a stabilization period of 4-5 days, blood pressure and heart rate were measured under freely moving condition.
The test compound was suspended in 0.5% methylcellulose solution and the suspension was orally administered in a volume of 5 ml/Kg and the efficacy was evaluated.

blood pressure [3] = assay: Effects on the Cardiovascular Systems (anesthetized dogs, i.v.); format: in vivo, Mongrel dogs; details: 10 μg/kg i.v.
Protocol: (2) Effects on the Cardiovascular Systems
Mongrel dogs of either sex were anesthetized with intravenous administration of 30 mg/Kg pentobarbital, and after tracheal intubation, the experiments were performed under artificial respiration. After thoracotomy, heart rate, blood pressure, left ventricle pressure, max. dLVP/dt, pulmonary artery pressure, central venous pressure, cardiac output and the coronary artery blood flow were measured. The effects of test compound on these parameters were evaluated by administering it through the cannula indwelt in the femoral vein. The present compounds are effective for lowering blood pressure at a dose of 1 to 1000 μg/kg i.v.

Structure (SMILES): CC1(C)CN(c2cccc[n+]2[O-])c2cc3nonc3cc2O1 [Example 2, 2-(7,8-dihydro-6,6-dimethyl-6H-[1,4]oxazino[2,3-f][2,1,3]benzoxadiazol-8-yl)pyridine N-oxide]
- IC50 [1]: 150 nM
- IC100 [1]: 0.66 µM
- ED100PAP (dose required to produce a blood flow increase of 100%) (coronary artery): 3.5 µg
- MBP (blood pressure [2]): -45 Δ%
- MBP (mean blood pressure-lowering effect) (blood pressure [3]): -33 Δ%

Structure (SMILES): CC1(C)CN(c2cccc[n+]2[O-])c2cc3no[n+]([O-])c3cc2O1 [Example 4, 7,8-Dihydro-6,6-dimethyl-8-(2'-pyridyl)-6H-[1,4]oxazino[2,3-f][2,1,3]benzoxadiazole 3,1'-dioxide]
- IC50 [1]: 170 nM
- IC100 [1]: 1.23 µM
- MBP (mean blood pressure-lowering effect) (blood pressure [3]): -10 Δ%
